Values after ≈ are worked out from the molar mass of the structure shown. Active and inactive are the calls of the source. The calls are words filed in the database; no cut-off is given here.
Key:
Format in all cases: functional
[1] = system: Staphylococcus aureus; assay: Antibacterial activity against Staphylococcus aureus ATCC 25923 after 24 to 48 hr by two-fold serial dilution method
[2] = system: Fusarium oxysporum; assay: Antifungal activity against Fusarium oxysporum ATCC 16417 at 100 ug/ml after 48 hr by agar diffusion method; details: for zone of inhibition at 100 µg/mL: ATCC 16417, 48 h, read-out: DIZ
[3] = system: Streptococcus pyogenes; assay: Antibacterial activity against Streptococcus pyogenes ATCC 19615 at 100 ug/ml after 24 hr by agar diffusion method; details: ATCC 19615, 24 h, read-out: DIZ
[4] = system: Pseudomonas; assay: Antibacterial activity against Pseudomonas phaseolicola GSPB 2828 at 100 ug/ml after 24 hr by agar diffusion method; details: GSPB 2828, 24 h, read-out: DIZ
[5] = system: Staphylococcus aureus; assay: Antibacterial activity against Staphylococcus aureus ATCC 25923 at 100 ug/ml after 24 hr by agar diffusion method; details: ATCC 25923, 24 h, read-out: DIZ
[6] = system: Streptococcus pyogenes; assay: Antibacterial activity against Streptococcus pyogenes ATCC 19615 after 24 to 48 hr by two-fold serial dilution method
[7] = system: Pseudomonas fluorescens; assay: Antibacterial activity against Pseudomonas fluorescens S 97 at 100 ug/ml after 24 hr by agar diffusion method; details: for zone of inhibition at 100 µg/mL: S 97, 24 h, read-out: DIZ
[8] = system: Fusarium oxysporum; assay: Antifungal activity against Fusarium oxysporum ATCC 16417 after 24 to 48 hr by two-fold serial dilution method
[9] = system: Aspergillus niger; assay: Antifungal activity against Aspergillus niger MTCC 282 after 24 to 48 hr by two-fold serial dilution method
[10] = system: Pseudomonas; assay: Antibacterial activity against Pseudomonas phaseolicola GSPB 2828 after 24 to 48 hr by two-fold serial dilution method
[11] = system: Pseudomonas fluorescens; assay: Antibacterial activity against Pseudomonas fluorescens S 97 after 24 to 48 hr by two-fold serial dilution method
[12] = system: Aspergillus niger; assay: Antifungal activity against Aspergillus niger MTCC 282 at 100 ug/ml after 48 hr by agar diffusion method; details: for zone of inhibition at 100 µg/mL: MTCC 282, 48 h, read-out: DIZ

| Structure (SMILES) | MIC [1] [mg/L] | zone of inhibition at 100 µg/mL [2] [mm] | zone of inhibition at 100 µg/mL [3] [mm] | zone of inhibition at 100 µg/mL [4] [mm] | zone of inhibition at 100 µg/mL [5] [mm] | MIC [6] [mg/L] | zone of inhibition at 100 µg/mL [7] [mm] | MIC [8] [mg/L] | MIC [9] [mg/L] | MIC [10] [mg/L] | MIC [11] [mg/L] | zone of inhibition at 100 µg/mL [12] [mm] | diameter of the inhibition zone (DIZ) [2] | diameter of the inhibition zone (DIZ) [12] | diameter of the inhibition zone (DIZ) [7] |
| --- | --- | --- | --- | --- | --- | --- | --- | --- | --- | --- | --- | --- | --- | --- | --- |
| O=c1oc2ccc(Cl)cc2c2nc3c(cc12)CCC3 | 12.5 (≈ 46 µM) | 8 | 24 | 14 | 26 | 12.5 (≈ 46 µM) | 20 | > 100 | 25 (≈ 92 µM) | 100 (≈ 368 µM) | 12.5 (≈ 46 µM) | 32 | – | – | – |
| CC(=O)OCC1=C(C(=O)O)N2C(=O)[C@@H](NC(=O)Cc3cccs3)[C@H]2SC1 [CEPHALOTHIN] | 6.25 (≈ 15.8 µM) | – | 37 | 38 | 36 | 6.25 (≈ 15.8 µM) | 37 | – | – | 6.25 (≈ 15.8 µM) | 6.25 (≈ 15.8 µM) | – | – | – | – |
| Cc1ccc2oc(=O)c3cc4c(nc3c2c1)-c1ccccc1CC4 | 50 (≈ 160 µM) | 17 | 17 | 18 | 23 | 25 (≈ 79.8 µM) | 18 | 50 (≈ 160 µM) | 50 (≈ 160 µM) | 25 (≈ 79.8 µM) | 25 (≈ 79.8 µM) | 18 | – | – | – |
| Cc1ccc2oc(=O)c3cc4c(nc3c2c1)CCC4 | 50 (≈ 199 µM) | 30 | 19 | 15 | 18 | 50 (≈ 199 µM) | 17 | 12.5 (≈ 49.7 µM) | 50 (≈ 199 µM) | 50 (≈ 199 µM) | 25 (≈ 99.5 µM) | 24 | – | – | – |
| C[C@@H]1C[C@@H]([C@H](O)CC2CC(=O)NC(=O)C2)C(=O)[C@@H](C)C1 [CYCLOHEXIMIDE] | – | 43 | – | – | – | – | – | 3.12 (≈ 11.1 µM) | 6.25 (≈ 22.2 µM) | – | – | 42 | – | – | – |
| Cc1cccc2c1oc(=O)c1cc3c(nc12)CCC3 | 12.5 (≈ 49.7 µM) | – | 22 | 19 | 25 | 12.5 (≈ 49.7 µM) | 14 | – | 12.5 (≈ 49.7 µM) | 25 (≈ 99.5 µM) | 50 (≈ 199 µM) | 28 | inactive | – | – |
| O=c1oc2ccccc2c2nc3c(cc12)CCC3 | 50 (≈ 211 µM) | 18 | 20 | 14 | 19 | 25 (≈ 105 µM) | 19 | 50 (≈ 211 µM) | > 100 | 50 (≈ 211 µM) | 50 (≈ 211 µM) | 10 | – | – | – |
| Cc1ccc2oc(=O)c3cc4c(nc3c2c1)CCCC4 | 50 (≈ 188 µM) | 17 | 25 | 14 | 21 | 12.5 (≈ 47.1 µM) | 16 | 50 (≈ 188 µM) | – | 50 (≈ 188 µM) | 50 (≈ 188 µM) | – | – | inactive | – |
| O=c1oc2ccccc2c2nc3c(cc12)CCc1ccccc1-3 | 25 (≈ 83.5 µM) | 10 | 19 | 16 | 20 | 12.5 (≈ 41.8 µM) | 19 | 100 (≈ 334 µM) | 12.5 (≈ 41.8 µM) | 50 (≈ 167 µM) | 25 (≈ 83.5 µM) | 25 | – | – | – |
| O=c1oc2ccc(Cl)cc2c2nc3c(cc12)CCCC3 | 12.5 (≈ 43.7 µM) | 16 | 23 | 18 | 24 | 12.5 (≈ 43.7 µM) | – | 50 (≈ 175 µM) | 50 (≈ 175 µM) | 50 (≈ 175 µM) | – | 20 | – | – | inactive |
| Cc1cccc2c1oc(=O)c1cc3c(nc12)CCCC3 | 12.5 (≈ 47.1 µM) | 10 | 18 | 19 | 27 | 25 (≈ 94.2 µM) | 20 | 100 (≈ 377 µM) | 50 (≈ 188 µM) | 25 (≈ 94.2 µM) | 25 (≈ 94.2 µM) | 25 | – | – | – |
| O=c1oc2ccc(Cl)cc2c2nc3c(cc12)CCc1ccccc1-3 | 12.5 (≈ 37.5 µM) | 23 | 23 | 15 | 26 | 12.5 (≈ 37.5 µM) | 16 | 12.5 (≈ 37.5 µM) | 100 (≈ 300 µM) | 50 (≈ 150 µM) | 50 (≈ 150 µM) | 8 | – | – | – |
| Cc1cccc2c1oc(=O)c1cc3c(nc12)-c1ccccc1CC3 | 12.5 (≈ 39.9 µM) | 11 | 20 | 14 | 25 | 12.5 (≈ 39.9 µM) | 15 | 100 (≈ 319 µM) | 50 (≈ 160 µM) | 50 (≈ 160 µM) | 50 (≈ 160 µM) | 15 | – | – | – |
| O=c1oc2ccccc2c2nc3c(cc12)CCCC3 | 25 (≈ 99.5 µM) | 26 | 22 | 20 | 22 | 50 (≈ 199 µM) | 17 | 12.5 (≈ 49.7 µM) | 50 (≈ 199 µM) | 25 (≈ 99.5 µM) | 25 (≈ 99.5 µM) | 22 | – | – | – |
| O=C(N[C@H](CO)[C@H](O)c1ccc([N+](=O)[O-])cc1)C(Cl)Cl [CHLORAMPHENICOL] | 3.12 (≈ 9.67 µM) | – | 44 | 37 | 42 | 3.12 (≈ 9.67 µM) | 38 | – | – | 6.25 (≈ 19.3 µM) | 6.25 (≈ 19.3 µM) | – | – | – | – |

Reference: ChEMBL document CHEMBL3046437, “Synthesis, characterization and biological evaluation of some pyridine and quinoline fused chromenone derivatives” (2012)
